Results on one compound are retold here after patent publication US10085993B2, “Tablet formulation of 2-fluoro-N-methyl-4-[ 7-( quinolin-6-ylmethyl) imidazo [1,2-B] [1,2,4] triazin-2-yl] benzamide” (Novartis AG, priority 2014, dated 2018).

Molecules are shown by their SMILES. Counter-ions that a name gives are not always drawn.

Broadly, the solubility is the concentration that dissolves in the medium under given conditions. Lower therefore signals little dissolved substance.

Data set [1] can be described thus: Solubility at different pH.
The next data set is described as follows: Gelling behavior. Format: physicochemical. The following applies: gelling can compromise tablet disintegration and dissolution rate. The source says: 2-fluoro-N-methyl-4-[7-(quinolin-6-ylmethyl)imidazo[1,2-b][1,2,4]triazin-2-yl]benzamide dihydrochloride has a gelling behavior, mostly prominent at pHs above 3.5, which can compromise tablet disintegration and dissolution rate. Drug load and disintegrant type/levels can influence this behavior and need to be carefully selected to ensure adequate in vitro performance.

Another data set can be described thus: Bulk density. Format: physicochemical. The source says: 2-fluoro-N-methyl-4-[7-(quinolin-6-ylmethyl)imidazo[1,2-b][1,2,4]triazin-2-yl]benzamide dihydrochloride has a very low bulk density (0.085 g/mL), which justifies the need of a densification step prior tabletting. Wet granulation was identified as the most suitable technology for this compound.

As for `CNC(=O)c1ccc(-c2cnc3ncc(Cc4ccc5ncccc5c4)n3n2)cc1F` [2-fluoro-N-methyl-4-[7-(quinolin-6-ylmethyl)imidazo[1,2-b][1,2,4]triazin-2-yl]benzamide dihydrochloride], the solubility was 7200 µg/mL in data set [1] (pH 1, simulated gastric fluid) and 79.3 µg/mL in data set [1] (pH 6.8, aqueous buffer). Besides, the “pH at which gelling behavior is mostly prominent” value in the data set “Gelling behavior” was “above 3.5”. The compound also registered a bulk density in the data set “Bulk density” of 0.085 g/mL.
